Test results reported in article PMC12408343, “Deep learning reveals antibiotics in the archaeal proteome” (Nature Microbiology, 2025).
In brackets after ≈: the same amount, converted by molar mass. Peptide text beside a SMILES is read from it.

Experiments:
[1] = system: E. coli AIC222 (colistin-resistant, CRE); experiment: microbe, parasite or virus in culture; set-up: MIC, E. coli AIC222 - CRE (-): unit not given beside the values; conditions: Fig 2a source data; Gram-negative, CRE; broth microdilution
Method: (§1) Briefly, 10^5 bacterial cells were incubated with serially diluted EPs (0–64 μmol l^−1) at 37 °C. Bacterial growth was assessed by measuring the optical density at 600 nm in a microplate reader at 1 day post-treatment. […] Secondary structure fractions were calculated using the BeStSel server. fH and fβ stand for helical and β fractions, respectively.

[2] = system: A. baumannii; experiment: Cytoplasmic membrane fluidity, Laurdan generalized polarization; type: cell-based, Acinetobacter baumannii; conditions: peptides at 100× MIC stock diluted 1:100, 30 min, λex 350, λem 440/490 nm; mean of 3 independent experiments
Source text: Fig. 4 Mechanism of action, haemolytic activity and cytotoxicity of antibiotics from the archaeome. […] The fluorescence probe NPN was used to assess membrane permeabilization (a) induced by the tested EPs (Extended Data Fig. 6a). The fluorescence probe DiSC3-5 was used to evaluate membrane depolarization (b) caused by archaeasins (Extended Data Fig. 6b). The shown values represent the relative fluorescence of both probes, with nonlinear fitting compared with the baseline of the untreated control (buffer + bacteria + fluorescence dye) and benchmarked against the antibiotics polymyxin B and levofloxacin. c, Laurdan generalized polarization over time in A. baumannii treated with archaeasins. […] Higher generalized polarization values indicate increased membrane rigidity, whereas lower values reflect increased membrane fluidity. Benzyl alcohol was used as a positive control for membrane fluidization, and untreated cells served as a negative control. […] All experiments were performed in three independent replicates (Extended Data Fig. 7). The protein and peptide structures depicted in panels a and b were created with PyMOL Molecular Graphics System, v.3.0 (Schrödinger).

[3] = system: E. faecium ATCC 700221 (VRE); experiment: microbe, parasite or virus in culture; conditions: for MIC E. faecium ATCC 700221 – VRE (+): ATCC 700221, 24 h; for MIC, E. faecium ATCC 700221 - VRE (+): Fig 2a source data, Gram-positive, broth microdilution
Method: as §1

[4] = system: A. baumannii ATCC 19606; experiment: microbe, parasite or virus in culture
Method: as §1

[5] = system: E. coli AIC221; experiment: microbe, parasite or virus in culture; set-up: MIC, E. coli AIC221 (-): unit not given beside the values; conditions: for MIC E. coli AIC221 (−): AIC221, 24 h; for MIC, E. coli AIC221 (-): Fig 2a source data, Gram-negative, broth microdilution
Method: as §1

[6] = system: human red blood cells (RBCs); conditions: for HC50 (source data of Fig. 4) / HC50, peptide concentration leading to 50% RBC lysis: red cells of human, 4 h
Method: To assess the potential toxicity of the synthesized archaeasins, we exposed them to human red blood cells (RBCs), a common method for evaluating the toxicity of antimicrobial agents[20],[26],[27].
To evaluate the release of haemoglobin from human erythrocytes upon treatment of each of the EPs, human RBCs were obtained from Zen-Bio (donor, blood type A^−) obtained from heparin anti-coagulated blood. RBCs were washed with PBS (pH 7.4) 4× by centrifugation at 800g for 10 min. Aliquots of 200-fold-diluted cells (75 μl) were mixed with peptide solution (0.78–100 μmol l^−1; 75 μl), and the mixture was incubated for 4 h at room temperature. After incubation, the plate was centrifuged at 1,300g for 10 min to precipitate cells and debris, and 100 μl of supernatant from each well was transferred to a new 96-well plate for absorbance reading (405 nm) using an automatic plate reader. The percentage of haemolysis was defined by comparison with negative control (samples containing PBS) and positive control (samples containing 1% (v/v) SDS in PBS solution). Haemolysis(%)=100×(absorbance405nmpeptide−absorbance405nmnegativecontrol)/(absorbance405nmpositivecontrol−absorbance405nmnegativecontrol)
All assays were performed in three independent biological replicates as indicated in each figure legend and in the Methods. […] In the skin abscess and thigh infection mouse models, we used six mice per group following established protocols approved by the University Laboratory of Animal Resources of the University of Pennsylvania.
Extended Data Fig. 7 Hemolytic activity of archaeasins. Hemolytic activity was assessed by exposing red blood cells to archaeasins, with lysis determined by absorbance readings after 4 h. The peptides were added to plates and subjected to a two-fold dilution series (ranging from 64 to 4 μmol L^−1) before exposure to the red blood cells. Source data

[7] = system: E. coli ATCC 11775; experiment: microbe, parasite or virus in culture; set-up: MIC, E. coli ATCC 11775 (-): unit not given beside the values; conditions: for MIC, E. coli ATCC 11775 (-): Fig 2a source data, Gram-negative, broth microdilution
Method: as §1

[8] = system: P. aeruginosa PAO1; experiment: microbe, parasite or virus in culture; set-up: MIC, P. aeruginosa PAO1 (-): unit not given beside the values
Method: as §1

[9] = system: P. aeruginosa PA14; experiment: microbe, parasite or virus in culture; set-up: MIC, P. aeruginosa PA14 (-): unit not given beside the values
Method: as §1

[10] = system: K. pneumoniae ATCC 13883; experiment: microbe, parasite or virus in culture; conditions: for MIC K. pneumoniae ATCC 13883 (−): ATCC 13883, 24 h; for MIC, K. pneumoniae ATCC 13883 (-): Fig 2a source data, Gram-negative, broth microdilution
Method: as §1

[11] = system: S. aureus ATCC 12600; experiment: microbe, parasite or virus in culture
Method: as §1

[12] = system: S. aureus ATCC BAA-1556 (MRSA); experiment: microbe, parasite or virus in culture; set-up: MIC, S. aureus ATCC BAA-1556 - MRSA (+): unit not given beside the values
Method: as §1

[13] = Fig 2a source data, Gram-negative, broth microdilution

Compound	MIC, E. coli AIC222 - CRE (-) [1]	Laurdan generalized polarization change of cytoplasmic membrane [2]	MIC E. faecium ATCC 700221 – VRE (+) [3] [µM]	MIC, E. faecium ATCC 700221 - VRE (+) [3]	MIC, A. baumannii ATCC 19606 (-) [4]	MIC E. coli AIC221 (−) [5] [µM]	MIC, E. coli AIC221 (-) [5]	HC50 (source data of Fig. 4) [6] [µmol/L]	MIC, E. coli ATCC 11775 (-) [7]	MIC K. pneumoniae ATCC 13883 (−) [10] [µM]	MIC, K. pneumoniae ATCC 13883 (-) [10]	HC50, peptide concentration leading to 50% RBC lysis [6] [µmol/L]	other results
CC[C@H](C)[C@H](N)C(=O)N[C@@H](CC(C)C)C(=O)NCC(=O)NCC(=O)N[C@@H](CCCCN)C(=O)N[C@@H](CC(C)C)C(=O)N[C@H](C(=O)N[C@@H](CCCCN)C(=O)N[C@@H](CCCCN)C(=O)N[C@@H](CO)C(=O)N[C@@H](CC(C)C)C(=O)N[C@@H](CCCCN)C(=O)N[C@@H](CC(C)C)C(=O)O)[C@@H](C)CC [Archaeasin-21] (H-ILGGKLIKKSLKL-OH; N-terminus and C-terminus assumed)	64	only modest or even decreasing generalized polarization shifts	64 (≈ 90.3 µg/mL)	64	64	–	–	–	–	–	–	–	–
CC[C@H](C)[C@H](NC(=O)[C@H](Cc1c[nH]c2ccccc12)NC(=O)[C@H](CCCCN)NC(=O)[C@H](CC(C)C)NC(=O)[C@H](CCCNC(=N)N)NC(=O)[C@H](C)NC(=O)[C@H](CCCNC(=N)N)NC(=O)[C@H](C)NC(=O)[C@H](CC(C)C)NC(=O)[C@H](Cc1c[nH]c2ccccc12)NC(=O)[C@@H](N)CC(C)C)C(=O)N[C@H](C(=O)O)[C@@H](C)O [Archaeasin-57] (H-LWLARARLKWIT-OH; N-terminus and C-terminus assumed)	64	pronounced increases in generalized polarization values over time	8 (≈ 12.2 µg/mL)	8	16	64 (≈ 97.7 µg/mL)	64	203.9	–	–	–	–	–
CC[C@H](C)[C@H](NC(=O)[C@H](CC(C)C)NC(=O)[C@H](CC(C)C)NC(=O)[C@H](CCCNC(=N)N)NC(=O)[C@H](C)NC(=O)[C@H](CC(C)C)NC(=O)[C@H](Cc1ccc(O)cc1)NC(=O)CNC(=O)[C@H](C)NC(=O)CN)C(=O)N[C@@H](CCCNC(=N)N)C(=O)N[C@@H](CCCNC(=N)N)C(=O)N[C@@H](CO)C(=O)N[C@@H](CC(C)C)C(=O)N[C@@H](CCCNC(=N)N)C(=O)N[C@@H](CC(C)C)C(=O)N[C@@H](CC(C)C)C(=O)N[C@@H](CCCNC(=N)N)C(=O)N[C@@H](CCCNC(=N)N)C(=O)N[C@@H](CC(C)C)C(=O)O [Archaeasin-78] (H-GAGYLARLLIRRSLRLLRRL-OH; N-terminus and C-terminus assumed)	4	pronounced increases in generalized polarization values over time	1 (≈ 2.37 µg/mL)	1	1	1 (≈ 2.37 µg/mL)	1	5.537	32	4 (≈ 9.47 µg/mL)	4	6	MIC, P. aeruginosa PAO1 (-) [8, 13]: 8; MIC P. aeruginosa PAO1 (−) ([8]; PAO1, 24 h): 8 µM (≈ 18.9 µg/mL); MIC, P. aeruginosa PA14 (-) [9, 13]: 16; MIC P. aeruginosa PA14 (−) ([9]; PA14, 24 h): 16 µM (≈ 37.9 µg/mL); MIC S. aureus ATCC 12600 (+) ([11]; ATCC 12600, 24 h): 8 µmol/L (≈ 18.9 µg/mL); MIC S. aureus ATCC 12600 (+) ([11]; Fig 2a source data, Gram-positive, broth microdilution): 8; haemolytic effects [6]: did show haemolytic effects; MIC S. aureus ATCC BAA-1556 – MRSA (+) ([12]; ATCC BAA-1556, 24 h): 8 µM (≈ 18.9 µg/mL); MIC, S. aureus ATCC BAA-1556 - MRSA (+) ([12]; Fig 2a source data, Gram-positive, MRSA, broth microdilution): 8
CC[C@H](C)[C@H](N)C(=O)NCC(=O)N[C@@H](Cc1c[nH]c2ccccc12)C(=O)N[C@H](C(=O)N[C@@H](CO)C(=O)N[C@@H](CC(N)=O)C(=O)N[C@@H](CCCNC(=N)N)C(=O)N[C@H](C(=O)N[C@H](C(=O)N[C@@H](CC(C)C)C(=O)N[C@@H](CCCCN)C(=O)N[C@@H](CC(C)C)C(=O)N[C@@H](CC(C)C)C(=O)N[C@@H](CCCNC(=N)N)C(=O)N[C@@H](Cc1ccccc1)C(=O)N[C@@H](C)C(=O)N[C@@H](CCCCN)C(=O)N[C@@H](CC(N)=O)C(=O)N[C@@H](CCSC)C(=O)N[C@@H](CCCCN)C(=O)O)[C@@H](C)CC)C(C)C)[C@@H](C)CC [Archaeasin-22] (H-IGWISNRVILKLLRFAKNMK-OH; N-terminus and C-terminus assumed)	4	only modest or even decreasing generalized polarization shifts	–	–	1	2 (≈ 4.8 µg/mL)	2	7.224	16	16 (≈ 38.4 µg/mL)	16	7	MIC E. coli ATCC 11775 (−) ([7]; ATCC 11775, 24 h): 16 µM (≈ 38.4 µg/mL)
